The text below walks through data of patent US11292788B2, “IL-17 and IFN-gamma inhibition for the treatment of autoimmune diseases and chronic inflammation” (Immunic AG, priority 2017, dated 2022).

One series deals with IL-17A. Put plainly: Cytokine assay: IL-17A production by human PBMC stimulated with PHA. The format is cell-based. To be noted: IC50 class, read-out: IL-17A Inhib. The method, boiled down: (§1)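 Compounds were titrated semilogarithmically for IC50, or screened at 10, 1, 0.1 and 0.01 μM, on healthy-donor PBMC stimulated for 48 h with 2 μg/ml PHA at 1×10^5 cells/well. Cytokines in culture supernatants were then quantified by ELISA or Luminex bead assay.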

A further series has as its system IL-17F. Nature of the series: Cytokine assay: IL-17F production by human PBMC stimulated with PHA. The class given is cell-based. To be noted: IC50 class, read-out: IL-17F Inhib. Put shortly:
as §1

Another series concerns INF-γ. Nature of the series: Cytokine assay: INF-γ production by human PBMC stimulated with PHA. The class given is cell-based. To be noted: IC50 class, read-out: IFN-gamma Inhib. Put shortly: as §1
Series [1] can be described thus: Aqueous solubility in 50 mM phosphate buffer (HPLC/DAD). The class given is physicochemical. To be noted: aqueous solubility class; for solubility at 24 h: 50 mM phosphate buffer, 23 °C, pH 7.4, aqueous buffer, kinetic from dmso stock, read-out: aq. solub. The method, then:
To achieve this, the samples (final volume 500 μl, 200 μM compound concentration) were incubated for 24 hours at 23° C. under continuous shaking at 1400 rpm (Thermomixer, Eppendorf) in aqueous phosphate buffers (pH 4.0, 6.0, 7.4 and 9.0) with a final DMSO concentration of 1%. To separate the undissolved compound from the solution, the samples were centrifuged (30 min 18000 g at 23° C.). Supernatants were measured via HPLC equipped with a UV detector and concentrations were calculated according to signals of a standard curve. The standard curve was prepared by diluting a stock solution of each compound (c=0.1 mg/ml; received by adding 10 μl of 20 mM compound in DMSO to 914 μl MeCN) in a certain amount of MeCN to cover a range of 0.1 to 200 μg/ml.

The nature of series [2]: Microsomal stability: incubation with human liver microsomes, residual parent compound by HPLC-MS/MS. The settings on record: human liver microsomes 0.5 mg/ml, compound 1 μM, pH 7.4, 37° C., up to 60 min; for half-life at 1 μM: read-out: t1/2 hLM. The class given is in vitro ADME. The method, boiled down:
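Compound at 1 μM final with 0.5 mg/ml pooled human liver microsomes and NADPH regenerating system, 0.1 M potassium phosphate pH 7.4, 0.4% DMSO, 37° C, sampled up to 60 min. Residual parent measured by HPLC-MS/MS; half-life and clearance from slope of remaining % of T0.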

pIC50: −log10 of the molar value. ≈ marks a conversion by molar mass, not a printed value. Read-outs that look alike come from different tables or passages of the source. A value given as a limit tells only on which side of the number the result lay.

Turning to `COC(=O)c1c(-c2c(F)cccc2Cl)noc1-c1cnn([C@H]2C[C@](C)(O)C2)c1C(F)(F)F` [Example 27, methyl 3-(2-chloro-6-fluorophenyl)-5-(1-(3-hydroxy-3-methylcyclobutyl)-5-(trifluoromethyl)-1H-pyrazol-4-yl)isoxazole-4-carboxylate], the pIC50 in the series with IL-17A, in the series on IL-17F and in the series with INF-γ was greater than 7.30 in each case. For the same molecule, in series [1], the aq. solub. entry was “++ (++: 3-9.99 μM)”. The “t1/2 hLM” value in series [2] is reported as “++ (++: 40-100 min)”.

`CC(=O)c1c(-c2c(F)cccc2Cl)noc1-c1cnn(C[C@@H](C)O)c1C(F)(F)F` [Example 35, 1-[3-(2-chloro-6-fluorophenyl)-5-{1-[(2R)-2-hydroxypropyl]-5-(trifluoromethyl)-1H-pyrazol-4-yl}-1,2-oxazol-4-yl]ethan-1-one]: the pIC50 is 6.30 to 7.30 in the series on IL-17A (Homo sapiens, PBMC); 6.30 to 7.30 in the series on IL-17F (Homo sapiens, PBMC); 6.30 to 7.30 with INF-γ (Homo sapiens, PBMC). Besides, in series [1], the solubility at 24 h was greater than 10 µM. The half-life at 1 μM in series [2] was in the range of 40 to 100 min.

Regarding `C[C@@H](O)Cn1ncc(-c2onc(-c3c(F)cccc3Cl)c2C(=O)NC2CCCC2)c1C(F)(F)F` [Example 44, 3-(2-chloro-6-fluorophenyl)-N-cyclopentyl-5-{1-[1-(2R)-2-hydroxypropyl]-5-(trifluoromethyl)-1H-pyrazol-4-yl}-1,2-oxazole-4-carboxamide], the pIC50 was 6.30 to 7.30 with IL-17A (Homo sapiens, PBMC); 5.30 to 6.30 in the series with IL-17F (Homo sapiens, PBMC); 6.30 to 7.30 in the series on INF-γ (Homo sapiens, PBMC). The solubility at 24 h in series [1] was greater than 10 µM. For the same molecule, in series [2], the half-life at 1 μM lay within 2 to 9.99 min.

As for `C[C@]1(O)C[C@H](n2ncc(-c3onc(-c4ccccc4Cl)c3C(=O)OC3CC3)c2C(F)(F)F)C1` [Example 49, cyclopropyl 3-(2-chlorophenyl)-5-(1-(3-hydroxy-3-methylcyclobutyl)-5-(trifluoromethyl)-1H-pyrazol-4-yl)isoxazole-4-carboxylate], the pIC50 with IL-17A, in the series on IL-17F and with INF-γ was greater than 7.30 each time. In addition, the solubility at 24 h in series [1] lay within 1 to 2.99 µM (≈ 0.482 to 1.44 µg/mL). Further, the half-life at 1 μM in series [2] is greater than 100 min.

Regarding `CC(C)(O)Cn1ncc(-c2onc(-c3c(F)cccc3Cl)c2C(=O)OC2CCC2)c1C(F)(F)F` [Example 56, cyclobutyl 3-(2-chloro-6-fluorophenyl)-5-[1-(2-hydroxy-2-methylpropyl)-5-(trifluoromethyl)-1H-pyrazol-4-yl]-1,2-oxazole-4-carboxylate], the pIC50 in the series with IL-17A (Homo sapiens, PBMC) is greater than 7.30; with IL-17F (Homo sapiens, PBMC), greater than 7.30; with INF-γ (Homo sapiens, PBMC), greater than 7.30. The solubility at 24 h in series [1] is 1 to 2.99 µM (≈ 0.502 to 1.5 µg/mL). Besides, the half-life at 1 μM in series [2] lay in the range of 2 to 9.99 min.

Consider `C[C@H](O)Cn1ncc(-c2onc(-c3c(F)cccc3Cl)c2C(=O)OC2CC2)c1C(F)(F)F` [Example 59, cyclopropyl 3-(2-chloro-6-fluorophenyl)-5-{1-[(2S)-2-hydroxypropyl]-5-(trifluoromethyl)-1H-pyrazol-4-yl}-1,2-oxazole-4-carboxylate], for which the pIC50 is greater than 7.30 in the series with IL-17A (Homo sapiens, PBMC); greater than 7.30 in the series on IL-17F (Homo sapiens, PBMC); greater than 7.30 in the series with INF-γ (Homo sapiens, PBMC). Moreover, the solubility at 24 h in series [1] was greater than 10 µM. Further, the half-life at 1 μM in series [2] was 10 to 40 min.

For `C[C@H](O)Cn1ncc(-c2onc(-c3c(F)cccc3Cl)c2C(=O)OC2COC2)c1C(F)(F)F` [Example 60, oxetan-3-yl 3-(2-chloro-6-fluorophenyl)-5-{1-[(2S)-2-hydroxypropyl]-5-(trifluoromethyl)-1H-pyrazol-4-yl}-1,2-oxazole-4-carboxylate], the pIC50 in the series with IL-17A (Homo sapiens, PBMC) was 6.30 to 7.30; in the series with IL-17F (Homo sapiens, PBMC) it was 6.30 to 7.30; with INF-γ (Homo sapiens, PBMC), 6.30 to 7.30. In addition, the solubility at 24 h in series [1] was greater than 10 µM. In addition, the half-life at 1 μM in series [2] was in the range of 10 to 40 min.

As to `COCc1c(-c2c(F)cccc2Cl)noc1-c1cnn(CCC(C)(C)O)c1C(F)(F)F` [Example 67, 4-{4-[3-(2-chloro-6-fluorophenyl)-4-(methoxymethyl)-1,2-oxazol-5-yl]-5-(trifluoromethyl)-1H-pyrazol-1-yl}-2-methylbutan-2-ol], the pIC50 was 6.30 to 7.30 in the series on IL-17A (Homo sapiens, PBMC); 6.30 to 7.30 in the series with IL-17F (Homo sapiens, PBMC); greater than 7.30 in the series on INF-γ (Homo sapiens, PBMC). Further, the solubility at 24 h in series [1] is greater than 10 µM. Also, the half-life at 1 μM in series [2] is greater than 100 min.

On to `CCOCc1c(-c2c(F)cccc2Cl)noc1-c1cnn(C[C@@H](C)O)c1C(F)(F)F` [Example 76, (2R)-1-{4-[3-(2-chloro-6-fluorophenyl)-4-(ethoxymethyl)-1,2-oxazol-5-yl]-5-(trifluoromethyl)-1H-pyrazol-1-yl}propan-2-ol], for which the pIC50 in the series with IL-17A (Homo sapiens, PBMC) was 6.30 to 7.30; with IL-17F (Homo sapiens, PBMC) it was 6.30 to 7.30; in the series on INF-γ (Homo sapiens, PBMC), greater than 7.30. Also, the solubility at 24 h in series [1] was greater than 10 µM. Further, in series [2], the half-life at 1 μM lay in the range of 10 to 40 min.

Take `CC(C)(O)CCn1ncc(-c2onc(-c3c(F)cccc3Cl)c2COC2CC2)c1C(F)(F)F` [Example 77, 4-{4-[3-(2-chloro-6-fluorophenyl)-4-(cyclopropoxymethyl)-1,2-oxazol-5-yl]-5-(trifluoromethyl)-1H-pyrazol-1-yl}-2-methylbutan-2-ol]: the pIC50 was greater than 7.30 with IL-17A (Homo sapiens, PBMC); greater than 7.30 in the series with IL-17F (Homo sapiens, PBMC); greater than 7.30 with INF-γ (Homo sapiens, PBMC). The solubility at 24 h in series [1] fell in the range of 3 to 9.99 µM (≈ 1.46 to 4.87 µg/mL). Besides, the half-life at 1 μM in series [2] is greater than 100 min.

Take `CC(C)(O)CCn1ncc(-c2onc(-c3ccccc3Cl)c2COC2CC2)c1C(F)(F)F` [Example 78, 4-{4-[3-(2-chlorophenyl)-4-(cyclopropoxymethyl)-1,2-oxazol-5-yl]-5-(trifluoromethyl)-1H-pyrazol-1-yl}-2-methylbutan-2-ol]: the pIC50 in the series with IL-17A (Homo sapiens, PBMC) was 6.30 to 7.30; in the series with IL-17F (Homo sapiens, PBMC), greater than 7.30; in the series on INF-γ (Homo sapiens, PBMC), greater than 7.30. Also, the solubility at 24 h in series [1] is greater than 10 µM. Moreover, in series [2], the half-life at 1 μM lay within 40 to 100 min.

Take `Cc1c(-c2onc(-c3c(F)cccc3Cl)c2COC2CC2)cnn1CCC(C)(C)O` [Example 82, 4-{4-[3-(2-chloro-6-fluorophenyl)-4-(cyclopropoxymethyl)-1,2-oxazol-5-yl]-5-methyl-1H-pyrazol-1-yl}-2-methylbutan-2-ol]: the pIC50 is greater than 7.30 in the series on IL-17A (Homo sapiens, PBMC); greater than 7.30 in the series with IL-17F (Homo sapiens, PBMC); greater than 7.30 in the series with INF-γ (Homo sapiens, PBMC). Moreover, the solubility at 24 h in series [1] was greater than 10 µM. Besides, the half-life at 1 μM in series [2] was greater than 100 min.

As to `Cc1c(-c2onc(-c3c(F)cccc3Cl)c2COC2CC2)cnn1[C@H]1C[C@@](C)(O)C1` [Example 83, 3-{4-[3-(2-chloro-6-fluorophenyl)-4-(cyclopropoxymethyl)-1,2-oxazol-5-yl]-5-methyl-1H-pyrazol-1-yl}-1-methylcyclobutan-1-ol], the pIC50 is greater than 7.30 with IL-17A (Homo sapiens, PBMC); greater than 7.30 in the series on IL-17F (Homo sapiens, PBMC); greater than 7.30 in the series on INF-γ (Homo sapiens, PBMC). Moreover, the solubility at 24 h in series [1] is 1 to 2.99 µM (≈ 0.432 to 1.29 µg/mL). For the same molecule, the half-life at 1 μM in series [2] lay in the range of 40 to 100 min.

As to `C[C@]1(O)C[C@@H](n2ncc(-c3onc(-c4ccccc4Cl)c3COC3CC3)c2C(F)(F)F)C1` [Example 87, 3-{4-[3-(2-chlorophenyl)-4-(cyclopropoxymethyl)-1,2-oxazol-5-yl]-5-(trifluoromethyl)-1H-pyrazol-1-yl}-1-methylcyclobutan-1-ol], the pIC50 is 6.30 to 7.30 with IL-17A (Homo sapiens, PBMC); greater than 7.30 with IL-17F (Homo sapiens, PBMC); greater than 7.30 with INF-γ (Homo sapiens, PBMC). Besides, the solubility at 24 h in series [1] was greater than 10 µM. Besides, in series [2], the half-life at 1 μM is greater than 100 min.
